According to patent US6677309B1, “Anti-cancer drug aldehyde conjugate drugs with enhanced cytotoxicity compounds, compositions and methods” (University Technology Corporation, priority 1997, dated 2004):
Read-outs that look alike come from different tables or passages of the source.

Legend:
[1] = test system: MCF-7 cells; assay: In vitro cytotoxicity, colony formation by crystal violet assay, MCF-7
Experimental: (§1) The term IC50 as used herein refers to the concentration of drug which inhibits cell growth by 50%, i.e., 50% of cells are viable at the IC50 concentration relative to a no-drug control.
(§2) Cells were incubated with drug for 3 h in RPMI (Roswell Park Memorial Institute) 1640 media containing 10% fetal bovine serum and 1% DMSO. Plates, were developed using the crystal violet assay. […] In all cases percent survival was determined by the extent of colony formation six days after drug treatment.
(§3) All tissue culture materials were obtained from Gibco Life Technologies (Grand Island, N.Y.) unless otherwise stated. MCF-7 breast cancer cells were obtained from American Type Culture Collection (Rockville, Md.). […] Both cell lines were maintained in vitro by serial culture in phenol red-free RPMI Media 1640 supplemented with 10% fetal bovine serum (Gemini Bio-Products, Calbasas, Calif.), L-glutamine (2 mM), HEPES buffer (10 mM), penicillin (100 units/mL), and streptomycin (100 μg/mL). […] Cells were maintained at 37° C. in a humidified atmosphere of 5% CO2 and 95% air.
(§4) Cells were dissociated with trypsin-EDTA, counted, and suspended in growth media to a concentration of 5×10^3 cells/mL. Cell suspensions were dispensed in 200 μL aliquots into 96-well tissue culture plates. Plates were then incubated for 24 h at 37° C. in a humidified atmosphere of 5% CO2 and 95% air. The media was replaced with 180 μL of growth media prior to addition of the cytotoxic agents.
(§5) Concentrations were then corrected by measuring the solution absorbance at 480 nm (ε=11,500/mole anthracycline). The solutions were then serially diluted in DMSO to give a series of 100× working concentration solutions. For each concentration, the 100× solution was diluted 1:10 in serum-free RPMI Media 1640. 20 μL of the resulting […] solution was immediately added to the appropriate lane. Additionally, one lane was treated with 20 μL of 10% DMSO in serum-free RPMI (no drug) and one lane replaced with 200 μL of 1.5 M Tris buffer (no cells). The cells were incubated at 37° C. for 3 h. The drug solutions were removed and 200 μL of fresh growth media was added to each well.
(§6) The extent of colony formation was determined by use of a crystal violet staining assay (Gilles, R. J. et al. (1986), “Determination of cell number in monolayer cultures,” Anal. Biochem. 159:109-113; Reile, H. et al. (1990), “Computerized determination of growth kinetic curves and doubling times from cells in microcultures,” Anal. Biochem. 187:262-267). […] The cells were then stained with 75 μL of 0.1% crystal violet in deionized water for 30 min. […] The plates were blotted dry and 200 μL of 70% ethanol in water was added to each well to solublize the dye. The plates were stored at 4° C. until solubilization was complete (about 4 h). The optical density of each well was measured on an ELISA plate reader at 588 nm. Relative colony sizes were determined by comparison of the drug treated lanes to the control lanes.
(§7) MCF-7 breast cancer cells were obtained from American Type Culture Collection (Rockville, Md.). MCF-7/ADR adriamycin resistant breast cancer cells were a gift of Dr. William W. Wells (Michigan State University). Both cell lines were maintained in vitro by serial culture in phenol red-free RPMI Media 1640 supplemented with 10% fetal bovine serum (Gemini Bio-Products, Calbasas, Calif.), L-glutamine (2 mM), HEPES buffer ([…]), penicillin (100 units/mL), and streptomycin (100 μg/mL). […] Cells were maintained at 37° C. in a humidified atmosphere of 5% CO2 and 95% air.
1640 media containing 10% fetal bovine serum. The resulting 90% media/10% DMSO solutions (v/v) were incubated at 37° C. for 6h.

[2] = test system: MCF-7/ADR cells; assay: In vitro cytotoxicity, colony formation by crystal violet assay, MCF-7/ADR
Experimental: as §1, §2, §3, §4, §5, §6, §7
These were then diluted 10× with autoclaved Millipore water.

[3] = test system: LNCaP; assay: Prostate cancer cell cytotoxicity, crystal violet assay, LNCaP; assay type: cell-based, human
Experimental: (§8) Toxicity to the three prostate cancer cell lines, LNCaP, DU-145, and PC-3 were measured in two different media, RPMI-1640 and DMEM (Dulbecco's Modified Eagle Medium), both supplemented with 10% fetal bovine serum.
(§9) Cell lines were maintained in vitro in RPMI 1640 media or DMEM, each supplemented with 10% fetal bovine serum, 2 mM L-glutamine, 10 mM HEPES buffer, penicillin (100 units/mL) and streptomycin (100 μg/mL).
(§10) Cells were dissociated with trypsin/EDTA, counted, and suspended in growth media (RPMI or DMEM) to a concentration of 5.6×10^3 cells/mL. Cell suspensions were dispensed in 180 μL aliquots into 96-well tissue culture plates. […] Each 100× solution was diluted 10× in growth media (RPMI or DMEM), and a 20 μL aliquot of the resulting 10× solution was immediately (<10s) added to-the appropriate lane. Additionally, one lane was treated with 20 μL of 10% DMSO in growth media (no drug) and one lane was treated with 200 μL of 1.5 M Tris buffer (no cells). The cells were incubated with the drugs for 3 h at 37° C. The drug solutions were then removed and replaced with 200 μL of fresh media. The cells were incubated for 4 days (7 days for PC-3 cells in DMEM) at 37° C. in a humidified atmosphere of 5% CO2 and 95% air. Cell survival was determined using a crystal violet assay as described earlier (Fenick, D. J. et al (1997) J. Med. Chem. 40: 2452-2461).

[4] = test system: DU-145; assay: Prostate cancer cell cytotoxicity, crystal violet assay, DU-145; assay type: cell-based, human
Experimental: as §8, §9, §10

[5] = test system: PC-3; assay: Prostate cancer cell cytotoxicity, crystal violet assay, PC-3; assay type: cell-based, human
Experimental: as §8, §9, §10

[6] = test system: self-complementary DNA octamer (GC)4; assay: Drug-DNA conjugate formation with (GC)4, HPLC; assay type: biochemical; conditions: 5 h
Experimental: The amount of available formaldehyde was 99 μM (3×33 μM). […] The experiment was also run at 25° C. in pH 6.0 phosphate buffer containing 4% DMSO. […] The ratio for conjugate 1 was assumed to be 24:1, based upon the value for conjugate 2. […] Under these circumstances, the conjugate 1 area was estimated based upon its 480 nm absorbance, assuming the 24:1 ratio for A260:A480.
The formation of drug-DNA conjugates at 25° C. was monitored by HPLC (Method II). […] The experiment was also run in pH 6.0 phosphate buffer containing 4% DMSO.

[7] = Homo sapiens, MCF7, read-out: IC50 Values, MCF-7
[8] = Homo sapiens, NCI/ADR-RES, read-out: IC50 Values, MCF-7-ADR
[9] = Homo sapiens, LNCaP, DMEM with 10% fetal bovine serum, 3 h drug, 4 days growth, read-out: IC50 Values, LNCaP/DMEM (converted)
[10] = Homo sapiens, LNCaP, RPMI-1640 with 10% fetal bovine serum, 3 h drug, 4 days growth, read-out: IC50 Values, LNCaP/RPMI-1640 (converted)
[11] = Homo sapiens, DU-145, DMEM with 10% fetal bovine serum, 3 h drug, 4 days growth, read-out: IC50 Values, DU-145/DMEM (converted)
[12] = Homo sapiens, PC-3, DMEM with 10% fetal bovine serum, 3 h drug, 7 days growth, read-out: IC50 Values, PC-3/DMEM (converted)
[13] = Homo sapiens, PC-3, RPMI-1640 with 10% fetal bovine serum, 3 h drug, 4 days growth, read-out: IC50 Values, PC-3/RPMI-1640 (converted)

In the case of COc1cccc2c1C(=O)c1c(O)c3c(c(O)c1C2=O)C[C@@](O)(C(=O)CO)C[C@@H]3O[C@H]1C[C@H](N)[C@@H](O)[C@H](C)O1 [EPI, epidoxorubicin, reference compound], the IC50 [1, 7] is reported as 0.2 µM, the IC50 ([1]; Homo sapiens, MCF7, read-out: IC50 Values, MCF-7, Media/Serum) is reported as > 10 µM and the IC50 [2, 8] is reported as > 10 µM. It also gave an IC50 [3, 9] of 0.02 µM, an IC50 [3, 10] of 0.02 µM and an IC50 [4, 11] of 0.04 µM. The IC50 [5, 12] was 0.06 µM, the IC50 [5, 13] was 0.03 µM and the “DNA reacted to form drug-DNA conjugates” value ([6]; 33 μM (GC)4, 66 μM epidoxorubicin plus 99 μM formaldehyde, pH 6.0, 4% DMSO) was 51%. For the same molecule, the “DNA reacted to form drug-DNA conjugates” value ([6]; 33 μM (GC)4, 66 μM epidoxorubicin plus 99 μM formaldehyde, pH 7.3, 4% DMSO, 25° C.) was 75% and the “DNA reacted to form drug-DNA conjugates” value ([6]; 166 μM (GC)4, 664 μM epidoxorubicin plus 996 μM HCHO, pH 7.3, 4% DMSO, 25° C.) was 93%.
In the case of COc1cccc2c1C(=O)c1c(O)c3c(c(O)c1C2=O)C[C@@](O)(C(=O)CO)C[C@@H]3O[C@H]1C[C@H]2[C@@H](OCN3CN2CO[C@H]2[C@H](C)O[C@@H](O[C@H]4C[C@](O)(C(=O)CO)Cc5c(O)c6c(c(O)c54)C(=O)c4c(OC)cccc4C6=O)C[C@@H]23)[C@H](C)O1 [EPIF], the IC50 ([1]; read-out: IC50 Values, MCF-7, Media/Serum, drug preincubated 6 h at 37° C. in 10% DMSO/90% RPMI 1640 containing 10% fetal bovine serum) is reported as 0.2 µM, the IC50 ([1]; read-out: IC50 Values, MCF-7, 3 h drug incubation in RPMI 1640, 10% fetal bovine serum, 1% DMSO, colony formation six days after treatment, fresh drug solution) is reported as 0.0325 µM and the IC50 ([2]; read-out: IC50 Values, MCF-7-ADR, EPIF/DMSO, drug stored in DMSO (not dried) for 20 h at ambient temperature before treatment) is reported as 0.15 µM. The IC50 ([2]; read-out: IC50 Values, MCF-7-ADR, EPIF/H2O, drug preincubated in 90% H2O/10% DMSO at 37° C. for 20 h (equilibrium mixture with intermediates B, C, D)) was 0.2 µM, the IC50 ([2]; read-out: IC50 Values, MCF-7-ADR, 3 h drug incubation in RPMI 1640, 10% fetal bovine serum, 1% DMSO, colony formation six days after treatment, fresh drug solution) was 0.035 µM and the IC50 ([2]; read-out: IC50 Values, MCF-7/ADR, Media/Serum, drug preincubated 6 h at 37° C. in 10% DMSO/90% RPMI 1640 containing 10% fetal bovine serum) was 0.15 µM. The IC50 ([3]; DMEM with 10% fetal bovine serum, 3 h drug, 4 days growth, read-out: IC50 Values, LNCaP/DMEM (converted)) was 0.001 µM, the IC50 ([3]; RPMI-1640 with 10% fetal bovine serum, 3 h drug, 4 days growth, read-out: IC50 Values, LNCaP/RPMI-1640 (converted)) was 0.0035 µM and the IC50 ([4]; DMEM with 10% fetal bovine serum, 3 h drug, 4 days growth, read-out: IC50 Values, DU-145/DMEM (converted)) was 0.004 µM. The IC50 ([4]; RPMI-1640 with 10% fetal bovine serum, 3 h drug, 4 days growth, read-out: IC50 Values, DU-145/RPMI-1640 (converted)) was 0.015 µM, the IC50 ([5]; DMEM with 10% fetal bovine serum, 3 h drug, 7 days growth, read-out: IC50 Values, PC-3/DMEM (converted)) was 0.015 µM and the IC50 ([5]; RPMI-1640 with 10% fetal bovine serum, 3 h drug, 4 days growth, read-out: IC50 Values, PC-3/RPMI-1640 (converted)) was 0.0035 µM.
For C=O [formaldehyde, reference compound], the IC50 ([1]; Homo sapiens, MCF7, read-out: IC50 value, control experiment, MCF-7) was > 200 µM and the IC50 ([2]; Homo sapiens, NCI/ADR-RES, read-out: IC50 value, control experiment, MCF-7/ADR) was > 200 µM.
For COc1cccc2c1C(=O)c1c(O)c3c(c(O)c1C2=O)C[C@@](O)(C(=O)CO)C[C@@H]3O[C@H]1C[C@H](N)[C@H](O)[C@H](C)O1 [DOX, doxorubicin, reference compound], the IC50 [2, 8] was 10 µM, the IC50 [3, 9] was 0.015 µM and the IC50 [3, 10] was 0.02 µM. It also gave an IC50 [4, 11] of 0.06 µM, an IC50 [5, 12] of 0.06 µM and an IC50 [5, 13] of 0.03 µM.
Work on COc1cccc2c1C(=O)c1c(O)c3c(c(O)c1C2=O)C[C@@](O)(C(C)=O)C[C@@H]3O[C@H]1C[C@H](N)[C@H](O)[C@H](C)O1 [DAUN, daunorubicin, reference compound] yielded an IC50 [1, 7] of 0.06 µM, an IC50 [2, 8] of 2 µM and an IC50 ([3]; Homo sapiens, LNCaP, read-out: IC50 Values, LNCaP/DMEM) of 0.008 µM. For the same molecule, the IC50 ([3]; Homo sapiens, LNCaP, read-out: IC50 Values, LNCaP/RPMI-1640) was 0.02 µM, the IC50 ([4]; Homo sapiens, DU-145, read-out: IC50 Values, DU-145/DMEM) was 0.025 µM and the IC50 ([4]; Homo sapiens, DU-145, read-out: IC50 Values, DU-145/RPMI-1640) was 0.1 µM. The IC50 ([5]; Homo sapiens, PC-3, read-out: IC50 Values, PC-3/DMEM) was 0.02 µM and the IC50 ([5]; Homo sapiens, PC-3, read-out: IC50 Values, PC-3/RPMI-1640) was 0.02 µM.
